Experimental findings from US9204653B2, “5-fluoro pyrimidine derivatives” (DOW AGROSCIENCES LLC, priority 2008, dated 2015) are described below.

Molecules are shown by their SMILES. Where two headings read alike, the source gives them in different places.

For the assay, the system named is Mycosphaerella graminicola; Anamorph: Septoria tritici; Bayer Code SEPTTR. Briefly: Leaf blotch of wheat, foliar fungicide treatment, one day protectant (1DP) or three day curative (3DC). In kind it is in vivo, Septoria tritici on wheat plants (variety Yuma). The note with it: Zymoseptoria tritici; for pest or weed control at 50 ppm / pest or weed control at 200 ppm: % disease control rating.

Where [1] appears, read: 24 h, one day protectant (1DP), 25 ppm, percent disease control rating, read-out: SETTTR 1DP 25 ppm.
Where [2] appears, read: 24 h, one day protectant (1DP), percent disease control rating, read-out: SEPTTR 1DP 100 ppm.
Where [3] appears, read: 72 h, three day curative (3DC), 25 ppm, percent disease control rating, read-out: SEPTTR 3DC 25 ppm.
The mark [4] stands for this setting: 72 h, three day curative (3DC), percent disease control rating, read-out: SEPTTR 3DC 100 ppm.
Setting [5] is: 24 h, one day protectant (1DP), 25 ppm, rating of percent disease control, read-out: SETTTR 1DP 25 ppm.
[6] abbreviates: 24 h, one day protectant (1DP), rating of percent disease control, read-out: SEPTTR 1DP 100 ppm.
[7] abbreviates: 72 h, three day curative (3DC), 25 ppm, rating of percent disease control, read-out: SEPTTR 3DC 25 ppm.
The mark [8] stands for this setting: 72 h, three day curative (3DC), rating of percent disease control, read-out: SEPTTR 3DC 100 ppm.
Setting [9] is: 24 h, one day protectant (1DP), 25 ppm (first 1DP column), percent control rating, read-out: SETTTR 1DP 25 ppm.
Setting [10] is: 24 h, one day protectant (1DP), 25 ppm as printed (second 1DP column), percent control rating, read-out: SETTTR 1DP 25 ppm.
[11] abbreviates: 72 h, three day curative (3DC), 25 ppm, percent control rating, read-out: SEPTTR 3DC 25 ppm.
Setting [12] is: 72 h, three day curative (3DC), percent control rating, read-out: SEPTTR 3DC 100 ppm.
[13] abbreviates: 24 h, one day protectant, 25 ppm, rating of percent disease control, read-out: SETTTR 1DP 25 ppm.
The mark [14] stands for this setting: 24 h, one day protectant, rating of percent disease control, read-out: SEPTTR 1DP 100 ppm.
The mark [15] stands for this setting: 72 h, three day curative, 25 ppm, rating of percent disease control, read-out: SEPTTR 3DC 25 ppm.
[16] abbreviates: 72 h, three day curative, rating of percent disease control, read-out: SEPTTR 3DC 100 ppm.

Consider `Fc1cnc(OCc2ccccc2)nc1-n1ccnc1` [Compound 115], for which the pest or weed control at 25 ppm by setting is: under setting [1], 76 to 100%; under setting [3], 76 to 100%. The pest or weed control at 100 ppm by setting is: under setting [2], 76 to 100%; under setting [4], 76 to 100%.

As for `COc1cccc(COc2ncc(F)c(NN)n2)c1` [Compound 44, 5-Fluoro-4-hydrazinyl-2-(3-methoxybenzyloxy)pyrimidine], the pest or weed control at 25 ppm under setting [1] is 0 to 25% and the pest or weed control at 25 ppm under setting [3] fell in the range of 51 to 75%. In addition, the pest or weed control at 100 ppm under setting [2] was in the range of 76 to 100% and the pest or weed control at 100 ppm under setting [4] fell in the range of 76 to 100%.

Consider `Fc1cnc(OCc2ccc(Cl)cc2)nc1NCc1ccc(Cl)cc1` [Compound 816], for which, where the note is “24 h, one day protectant”, the pest or weed control at 50 ppm was in the range of 76 to 100% and the pest or weed control at 200 ppm lay in the range of 76 to 100%.

For the setting “24 h, one day protectant”, `Cc1ccc(COc2ncc(F)c(N3CCOCC3)n2)cc1` [Compound 836] came in with a pest or weed control at 50 ppm of 51 to 75% and a pest or weed control at 200 ppm of 76 to 100%.

Turning to `CC(C)(C)Oc1cccc(COc2ncc(F)c(N)n2)c1` [Compound 385], the pest or weed control at 25 ppm by setting is: under setting [5], 76 to 100%; under setting [7], 76 to 100%. The pest or weed control at 100 ppm under setting [6] fell in the range of 76 to 100% and the pest or weed control at 100 ppm under setting [8] lay within 76 to 100%.

As to `CCCCCOC(=O)Nc1nc(OCc2cccc(OC)c2)ncc1F` [Compound 988], the pest or weed control at 25 ppm under setting [9] is 76 to 100%, the pest or weed control at 25 ppm under setting [10] lay within 76 to 100% and the pest or weed control at 25 ppm under setting [11] was in the range of 76 to 100%. In addition, the pest or weed control at 100 ppm under setting [12] fell in the range of 76 to 100%.

Take `CCCNC(=S)Nc1nc(OCc2cccc(F)c2)ncc1F` [Compound 568]: the pest or weed control at 25 ppm runs as follows: under setting [13], 51 to 75%; under setting [15], 76 to 100%. The pest or weed control at 100 ppm was in the range of 76 to 100% under setting [14] and 76 to 100% under setting [16].

`CCC(C)C(Oc1ncc(F)c(N)n1)c1ccc(F)cc1` (centres unmarked) [Compound 403]: the pest or weed control at 25 ppm runs as follows: under setting [5], 76 to 100%; under setting [7], 26 to 50%. Moreover, the pest or weed control at 100 ppm fell in the range of 76 to 100% under setting [6] and 76 to 100% under setting [8].

With `C=CCOc1ncc(F)c(/N=N/c2ccc(Br)cc2)n1` [Compound 1100], the pest or weed control at 25 ppm by setting is: under setting [9], 0 to 25%; under setting [10], 0 to 25%; under setting [11], 26 to 50%. In addition, the pest or weed control at 100 ppm under setting [12] lay within 26 to 50%.

On to `Nc1nc(OCc2cc(Cl)nc(Cl)c2)ncc1F` [Compound 682], for which the pest or weed control at 25 ppm under setting [13] was 76 to 100% and the pest or weed control at 25 ppm under setting [15] lay in the range of 76 to 100%. The pest or weed control at 100 ppm by setting is: under setting [14], 76 to 100%; under setting [16], 76 to 100%.

For the molecule `Fc1ccc(COc2ncc(F)c(-n3ccnc3)n2)cc1` [Compound 688], the pest or weed control at 25 ppm under setting [13] was in the range of 76 to 100% and the pest or weed control at 25 ppm under setting [15] fell in the range of 76 to 100%. The pest or weed control at 100 ppm is 76 to 100% under setting [14] and 76 to 100% under setting [16].

`Nc1nc(ON=C(c2ccccc2)c2ccccc2)ncc1F` [Compound 312]: the pest or weed control at 25 ppm is, setting by setting: under setting [5], 76 to 100%; under setting [7], 76 to 100%. In addition, the pest or weed control at 100 ppm under setting [6] is 76 to 100% and the pest or weed control at 100 ppm under setting [8] was 76 to 100%.

Turning to `Cc1ccc(COc2ncc(F)c(-n3ccnc3)n2)cc1` [Compound 681], the pest or weed control at 25 ppm was in the range of 76 to 100% under setting [13] and 76 to 100% under setting [15]. Further, the pest or weed control at 100 ppm runs as follows: under setting [14], 76 to 100%; under setting [16], 76 to 100%.

Regarding `CNc1nc(OCc2cc(OC)c(OC)c(OC)c2)ncc1F` [Compound 480], the pest or weed control at 25 ppm under setting [5] lay in the range of 0 to 25% and the pest or weed control at 25 ppm under setting [7] was 0 to 25%. Further, the pest or weed control at 100 ppm under setting [6] was 0 to 25% and the pest or weed control at 100 ppm under setting [8] fell in the range of 0 to 25%.

For `CCOc1ccc(COc2ncc(F)c(N)n2)cc1` [Compound 400], the pest or weed control at 25 ppm under setting [5] was in the range of 76 to 100% and the pest or weed control at 25 ppm under setting [7] was in the range of 76 to 100%. For the same molecule, the pest or weed control at 100 ppm lay in the range of 76 to 100% under setting [6] and 76 to 100% under setting [8].

Take `Fc1cnc(OCc2cccs2)nc1NCc1ccc(Cl)cc1` [Compound 945]: under “24 h, one day protectant”, the pest or weed control at 50 ppm lay in the range of 76 to 100% and the pest or weed control at 200 ppm is 76 to 100%.

Regarding `COc1nn(C)c(C(F)(F)F)c1S(=O)(=O)Nc1nc(O)ncc1F` [Compound 1106], the pest or weed control at 25 ppm lay in the range of 0 to 25% under setting [9], 0 to 25% under setting [10] and 0 to 25% under setting [11]. Also, the pest or weed control at 100 ppm under setting [12] fell in the range of 0 to 25%.

In the case of `OCNc1nc(OCc2ccc(F)cc2)ncc1F` [Compound 17], the pest or weed control at 25 ppm under setting [1] was 76 to 100% and the pest or weed control at 25 ppm under setting [3] was 76 to 100%. In addition, the pest or weed control at 100 ppm lay within 76 to 100% under setting [2] and 76 to 100% under setting [4].

As to `CN(C)/C=N/c1nc(OC(=O)c2ccccc2F)ncc1F` [Compound 58], the pest or weed control at 25 ppm under setting [1] is 76 to 100% and the pest or weed control at 25 ppm under setting [3] was 76 to 100%. For the same molecule, the pest or weed control at 100 ppm fell in the range of 76 to 100% under setting [2] and 76 to 100% under setting [4].

Consider `N=C(NO)Nc1nc(OCc2ccccc2)ncc1F` [Compound 964, 1-[2-(Benzyloxy)-5-fluoropyrimidin-4-yl]-3-hydroxyguanidine], for which the pest or weed control at 25 ppm under setting [9] lay within 0 to 25%, the pest or weed control at 25 ppm under setting [10] lay in the range of 0 to 25% and the pest or weed control at 25 ppm under setting [11] lay within 0 to 25%. In addition, the pest or weed control at 100 ppm under setting [12] is 26 to 50%.

Turning to `Fc1ccccc1CNc1nc(OCc2cccs2)ncc1F` [Compound 168], the pest or weed control at 25 ppm runs as follows: under setting [1], 0 to 25%; under setting [3], 0 to 25%. The pest or weed control at 100 ppm runs as follows: under setting [2], 26 to 50%; under setting [4], 26 to 50%.

Turning to `COCCCOc1ncc(F)c(NC(=O)Nc2ccsc2)n1` [Compound 159], the pest or weed control at 25 ppm reads like this: under setting [1], 0 to 25%; under setting [3], 26 to 50%. Further, the pest or weed control at 100 ppm is, setting by setting: under setting [2], 0 to 25%; under setting [4], 0 to 25%.

Consider `COc1cccc(COc2ncc(F)c(N(N)c3ccccc3)n2)c1` [Compound 367], for which the pest or weed control at 25 ppm by setting is: under setting [5], 0 to 25%; under setting [7], 0 to 25%. The pest or weed control at 100 ppm is, setting by setting: under setting [6], 0 to 25%; under setting [8], 0 to 25%.

In the case of `Nc1nc(OCCCC2CCCC2)ncc1F` [Compound 106], the pest or weed control at 25 ppm by setting is: under setting [1], 0 to 25%; under setting [3], 0 to 25%. Besides, the pest or weed control at 100 ppm is, setting by setting: under setting [2], 0 to 25%; under setting [4], 26 to 50%.

Consider `C=CCOc1ncc(F)c(NCc2ccccc2F)n1` [Compound 917], for which, for the setting “24 h, one day protectant”, the pest or weed control at 50 ppm was 0 to 25% and the pest or weed control at 200 ppm was in the range of 51 to 75%.

With `CCCNC(=O)Nc1nc(OCc2ccccc2OC)ncc1F` [Compound 724], the pest or weed control at 25 ppm was 0 to 25% under setting [13] and 0 to 25% under setting [15]. For the same molecule, the pest or weed control at 100 ppm under setting [14] lay within 26 to 50% and the pest or weed control at 100 ppm under setting [16] lay within 0 to 25%.

With `CC[Si](CC)(CC)Nc1nc(OCc2ccccc2)ncc1F` [Compound 656], the pest or weed control at 25 ppm is, setting by setting: under setting [13], 76 to 100%; under setting [15], 76 to 100%. The pest or weed control at 100 ppm is, setting by setting: under setting [14], 76 to 100%; under setting [16], 76 to 100%.

`CC(=O)Nc1nc(OCc2cccs2)ncc1F` [Compound 6, N-[5-Fluoro-2-(thiophen-2-ylmethoxy)pyrimidin-4-yl]acetamide]: the pest or weed control at 25 ppm was in the range of 76 to 100% under setting [1] and 76 to 100% under setting [3]. Moreover, the pest or weed control at 100 ppm reads like this: under setting [2], 76 to 100%; under setting [4], 76 to 100%.

In the case of `Fc1cnc(OCc2ccccc2)nc1/N=C/N1CCc2ccccc2C1` [Compound 679], the pest or weed control at 25 ppm under setting [13] lay in the range of 76 to 100% and the pest or weed control at 25 ppm under setting [15] lay within 76 to 100%. Also, the pest or weed control at 100 ppm lay in the range of 76 to 100% under setting [14] and 76 to 100% under setting [16].

For the molecule `CN(C)/C=N/c1nc(OS(=O)(=O)c2ccc(Cl)cc2)ncc1F` [Compound 359], the pest or weed control at 25 ppm under setting [5] was 76 to 100% and the pest or weed control at 25 ppm under setting [7] was in the range of 76 to 100%. The pest or weed control at 100 ppm lay within 76 to 100% under setting [6] and 26 to 50% under setting [8].

With `CCCC(Oc1ncc(F)c(N)n1)c1ccc(F)cc1` (centres unmarked) [Compound 83], the pest or weed control at 25 ppm by setting is: under setting [1], 76 to 100%; under setting [3], 76 to 100%. For the same molecule, the pest or weed control at 100 ppm by setting is: under setting [2], 76 to 100%; under setting [4], 76 to 100%.

With `Cc1ccc(COc2ncc(F)c(NCc3cccs3)n2)cc1` [Compound 949], under “24 h, one day protectant”, the pest or weed control at 50 ppm was in the range of 51 to 75% and the pest or weed control at 200 ppm is 76 to 100%.

Take `CCC(C)/C(C)=N/Nc1nc(OC)ncc1F` (centres unmarked) [Compound 1018]: the pest or weed control at 25 ppm fell in the range of 0 to 25% under setting [9], 0 to 25% under setting [10] and 0 to 25% under setting [11]. Under setting [12], the pest or weed control at 100 ppm was in the range of 0 to 25%.
